Measurements published in patent US11773086B2, “Fungal modulators” (TRUSTEES OF BOSTON UNIVERSITY, priority 2020, dated 2023).

How the values were obtained:
C. albicans (SN95) = test: Azoffluxin dose-response with background fluconazole; format: cell-based, Candida albicans; details: fluconazole-sensitive laboratory strain SN95, background FLC 4 μg/mL
Procedure: FIGS. 2A-2E illustrate the above-described screening of the BU-CMD which identified azoffluxin as a fluconazole (FLC) potentiator against C. auris. […] Growth, as determined by optical density at 600 nm (OD600), is plotted in the presence of each CMD compound alone on the y-axis and in combination with FLC on the x-axis. Dotted lines represent 7-median absolute deviations from the median for each condition. […] FIG. 2B depicts the synergistic interactions. […] Growth was measured by the OD600 and normalized to the no drug control (see color bar). The fractional inhibitory concentration index (FICI) was calculated to determine the chemical interaction, with a value below 0.5 indicating synergy. […] FIG. 2D depicts FLC Etest strips in the presence and absence of 50 μM azoffluxin. […]
Compound potency was assessed alone by dose response assays or in combination with another compound by dose-response matrixes in 96-well plates, or 384-well, flat-bottom, microtiter plates (Corning) as previously described. […] Growth was quantified by measuring OD600 and corrected for medium background. All strains were assessed in biological duplicate experiments with technical duplicates. […] For dose-response matrixes fractional inhibitory concentration index at 90% growth inhibition (FICI90) was calculated as previously described. […]

[1] = test system: CDR1 (B9J08_000164) and CDR4-1 (B9J08_000479); test: RT-qPCR of efflux gene expression; format: cell-based, Candida auris; details: azoffluxin alone, 3 hours
From the text: FIGS. 3A-3B, and 4A-4B illustrate azoffluxin increases fluconazole (FLC) bioavailability by inhibiting Cdr1-mediated efflux in C. auris, as described above. FIG. 3A depicts the relative abundance of specific sterols determined in C. auris after an 18-hour treatment with the respective compounds (⋅ indicates combo treatment concentrations) using LC-MS. Values are plotted relative to the internal standard of cholesterol and error bars indicate standard deviation between technical triplicates. Significance was determined by an unpaired student t-test of each condition to untreated, (*) indicates a p-value<0.05 and (**) indicates a p-value<0.01. FIG. 3B depicts the intracellular concentrations of FLC and azoffluxin measured after treatment for 1 hour (conditions as in FIG. 3A) Error bars indicate standard deviation between technical triplicates. Significance was determined by an unpaired student t-test, (**) indicates a p-value<0.01. FIG. 4A depicts the quantified relative expression of a panel of putative efflux pumps in C. auris Ci6684. Expression of CDR1 (B9J08_000164), MDR1 (B9J08_003981), CDR4-1 (B9J08_000479), CDR4-2 (B9J08_002451), SNQ2-1 (B9J08_001125), and SNQ2-2 (B9J08_004452) was measured by RT-qPCR. […] FIG. 4B depicts expression of CDR1 (B9J08_000164) and CDR4-1 (B9J08_000479) measured by quantitative real-time PCR (RT-qPCR). […]

C=C(C)C[C@@H](O)COc1cc2c(cc1C1(c3cc4c(cc3OC[C@H](O)CC(=C)C)OCO4)C(=O)Nc3cc(F)ccc31)OCO2 [CMLD012336]
enhancement of fluconazole activity (C. albicans (SN95)): did not enhance the activity of fluconazole
CDR1 and CDR4-1 transcript levels [1]: concentration-dependent increase
